Measurements as given in patent publication US20100210537A1, “USE OF A DEFENSIN PEPTIDE AS A THERAPEUTIC AGENT” (priority 2007, published 2010).
Where no end group is shown, it is not given here.

Experiments:
HIV-1IIIB = assay: HIV-1 antiviral assay in CEM-SS cells (MTS readout); type: cell-based
HCMV strain AD169 = assay: HCMV plaque formation assay in MRC-5 cells; conditions: for inhibition of HCMV plaque formation as compared to the virus control experiment: 10 micrograms per ml, 7-10 days
[1] = test system: hepatitis B virus (HBV) ayw strain; assay: HBV assay in HepG2-2.2.15 cells (TaqMan PCR of secreted HBV DNA); type: cell-based; conditions: 10 micrograms per ml, six days
Excerpt: HepG2-2.2.15 is a stable cell line containing the hepatitis B virus (HBV) ayw strain genome (ATCC Cat. No. CRL-11997). Antiviral compounds blocking any late step of viral replication such as transcription, translation, pregenome encapsidation, reverse transcription, particle assembly and release can be identified and characterized using this cell line. In this assay, an active compound will reduce the production of secreted HBV from cells, measured by utilizing real time quantitative PCR (TaqMan) assay to directly and accurately measure HBV DNA copies.
HepG2-2.2.15 cells were plated in 96-well microtiter plates. After 16-24 hours the confluent monolayer of HepG2-2.2.15 cells was washed and the medium was replaced with complete medium containing test peptides-10 micrograms per ml-in duplicate. […] Six days following the initial administration of the peptides, the cell culture supernatants was collected, treated with pronase and DNAse and then used in a real-time quantitative TaqMan PCR assay. The PCR-amplified HBV DNA was detected in real-time by monitoring increases in fluorescence signals that result from the exonucleolytic degradation of a quenched fluorescence probe molecule that hybridizes to the mplified HBV DNA. […] Antiviral activity was calculated from the reduction in HBV DNA levels (% virus control). […]

HUVEC = assay: Endothelial tube formation assay; type: cell-based, human; conditions: 10 micrograms per ml, 20 hours
Excerpt: Positive control was vehicle only.

Interleukin-5 (IL-5) = assay: Th1/Th2 cytokine profiling assay: IL-5; type: cell-based, Balb/c mice; conditions: 10 micrograms per ml; Ovalbumin-restimulated spleen cells, 72 hours
Protocol: (§1) On day 50, spleens of the mice were harvested (3 weeks after last boost with Ovalbumin). Cells were cultured (2×10^5/well in triplicate) and incubated with culture medium or test peptides-10 micrograms per ml-for 30 min. Thereafter, additional Ovalbumin was added to the cells at 10 micrograms/ml for in vitro restimulation of the cells. 72 hours later, cell supernatants were harvested and assayed using the Becton Dickinson Mouse Th1/Th2 Cytokine CBA Kit.

Interleukin-2 (IL-2) = assay: Th1/Th2 cytokine profiling assay: IL-2; type: cell-based, Balb/c mice; conditions: 10 micrograms per ml; Ovalbumin-restimulated spleen cells, 72 hours
Protocol: as §1

[2] = test system: Tumor Necrosis Factor-α (TNF-α); assay: Th1/Th2 cytokine profiling assay: TNF-alpha; type: cell-based, Balb/c mice; conditions: 10 micrograms per ml; Ovalbumin-restimulated spleen cells, 72 hours
Protocol: as §1

Interferon-γ (IFN-γ) = assay: Th1/Th2 cytokine profiling assay: IFN-gamma; type: cell-based, Balb/c mice; conditions: 10 micrograms per ml; Ovalbumin-restimulated spleen cells, 72 hours
Protocol: as §1

[3] = test system: Primary Human endothelial cells (HUVEC); assay: Endothelial cell migration assay; type: cell-based; conditions: 10 micrograms per ml, 22 hours
Protocol: Thereafter, designated concentration of testing peptides-10 micrograms per ml-was added in duplicate wells.

Interleukin-4 (IL-4) = assay: Th1/Th2 cytokine profiling assay: IL-4; type: cell-based, Balb/c mice; conditions: 10 micrograms per ml; Ovalbumin-restimulated spleen cells, 72 hours
Protocol: as §1

| Compound | antiviral activity of positive control compounds (HIV-1IIIB) | antiviral activity of positive control compound (HCMV strain AD169; positive control, HCMV AD169) | inhibition of HBV replication as compared to the virus control infection [1] | inhibition of the tube formation of human endothelial cells (HUVEC) | decrease of the production of IL-5 in murine spleen cells (Interleukin-5 (IL-5)) | decrease of the production of IL-2 in murine spleen cells (Interleukin-2 (IL-2)) | change of the production of TNF-alpha in murine spleen cells [2] | change of the production of IFN-gamma in murine spleen cells (Interferon-γ (IFN-γ)) | inhibition of the migration of human endothelial cells [3] | decrease of the production of IL-4 in murine spleen cells (Interleukin-4 (IL-4)) | inhibition of HCMV plaque formation as compared to the virus control experiment (HCMV strain AD169) |
| --- | --- | --- | --- | --- | --- | --- | --- | --- | --- | --- | --- |
| Cc1cn([C@H]2C[C@H](N=[N+]=[N-])[C@@H](CO)O2)c(=O)[nH]c1=O [AZT] | expected levels of antiviral activity |  |  |  |  |  |  |  |  |  |  |
| Nc1nc(O)c2ncn(COC(CO)CO)c2n1 [Ganciclovir, reference compound] |  | expected levels of antiviral activity |  |  |  |  |  |  |  |  |  |
| CC(C)(C)NC(=O)[C@@H]1CN(Cc2cccnc2)CCN1C[C@@H](O)C[C@@H](Cc1ccccc1)C(=O)N[C@H]1c2ccccc2C[C@H]1O [indinavir] | expected levels of antiviral activity |  |  |  |  |  |  |  |  |  |  |
| Cys-Tyr-Cys-Arg-Ile-Pro-Ala-Cys-Ile-Ala-Gly-Glu-Arg-Arg-Tyr-Gly-Thr-Cys-Ile-Tyr-Gln-Gly-Arg-Leu-Trp-Ala-Phe-Cys-Cys-OH (CYCRIPACIAGERRYGTCIYQGRLWAFCC-OH; cysteine pairing not given here) [Peptide 1] |  |  | did not inhibit | 21% | 38.4% | 100% | did not significantly change | did not significantly change | 17% | 49.4% | did not inhibit |
| Ser-Glu-Ile-Trp-Arg-Asp-Ile-Asp-Phe-OH (SEIWRDIDF-OH) [Peptide 2] |  |  | 21.6% | 19% | did not significantly change | did not significantly change | did not significantly change | did not significantly change | 18% | did not significantly change | did not inhibit |
